Reference: patent US10538521B2, “Pyrimidine derivative having antimalarial activity” (CARNA BIOSCIENCES, INC., priority 2016, dated 2020)

How the values were obtained:
[1] = test system: K1 strain, a drug resistant strain of Plasmodium falciparum; assay: In vitro antimalarial assay (p-LDH, Malstat), K1 strain; type: cell-based; conditions: P. falciparum K1 (drug resistant), 72 h culture, p-LDH readout, read-out: Antimalarial activity (IC50 value), Strain K1
From the text: (§1) For the evaluation of the antimalarial activity of the compound of the present invention, K1 strain, a drug resistant strain of Plasmodium falciparum, and FCR3 strain, a drug sensitive strain thereof, which were generous gift from Professor Kiyoshi Kita of the Graduate School of Medicine and Faculty of Medicine, the University of Tokyo, were used to measure the in vitro antimalarial activity of the compound against those Plasmodium species according to the method established by Otoguro et al. (Otoguro, K., Kohana, A., Manabe, C., Ishiyama, A., Ui, H., Shiomi, K., Yamada, H. & Omura, S.: Potent antimalarial activity of polyether antibiotic, X-206. J. Antibiot., 54: 658-663, (2001)).
(§2) The parasites were grown based on a slightly modified method from the original method reported by Trager and Jensen (Trager, W. and Jensen, J.: Human malaria parasites in continuous culture, Science, 193: 673-677, (1976)), and those which were maintained and sub-cultured by the method were used. More specifically, in a culture dish, erythrocytes infected with the protozoa, which had been sub-cultured using a RPMI 1640 medium to which 10% human plasma had been added and fresh human erythrocytes, were diluted (hematocrit value: 2 to 5%, parasitaemia: 0.25 to 1%), and were cultured at 37° C. in a mixed gas of 3% O2-4% CO2-93% N2, and continuously cultured while changing the medium and adding fresh erythrocytes at 2- or 3-day intervals.
(§3) A drug susceptibility test was performed by modifying the method established by Desjardins et al. (Desjardins, R. E., Canfield, C. J., Haynes, D. E. and Chulay, J. D.: Quantitative assessment of antimalarial activity in vitro by a semiautomated microdilution technique. Antimicrob. Agents Chemother., 16: 710-718 (1979)). More specifically, 190 μL of a suspension of protozoa which had been precultured (hematocrit value: 2%, parasitaemia: 0.5 or 1%) and 10 μL of a solution of a test compound (5% DMSO solution) serially diluted so that the final concentration was 12.5 to 0.0001 μM were put in each well of a 96-well plate, and after mixing, the same was cultured for 72 hours in the above mixed gas.
(§4) For the measurement of the growth of protozoa, the method established by Makler (Makler, M. T., Rise, J. M., Williams, J. A., Bancroft, J. E., Piper, R. C., Gibbins, B. L. and Hinrichs, D. J.: Parasite lactate dehydrogenase as an Assay for Plasmodium falciparum drug sensitivity, Am. J. Med. Hyg., 48: 739-741 (1993)) was modified to colorimetrically determine parasite lactate dehydrogenase (p-LDH) using Malstat reagent (Flow Inc., USA).
(§5) More specifically, 72 hours after the culture, the 96-well plate was directly frozen at −20° C. for 18 hours and melted at 37° C. to hemolyze the protozoan-infected erythrocytes and destroy the protozoa to prepare a crude enzyme solution. 100 μL of Malstat reagent and 20 μL of the crude enzyme solution were added to and mixed in each well of another 96-well plate, and after reacting for 15 minutes at room temperature, 20 μL of a nitroblue tetrazolium 2 mg/mL phenazine ethosulfate 0.1 mg/mL=1:1 solution was added to the respective wells, and reaction was performed in dark conditions at room temperature for 2 hours.
(§6) The absorbance of the blue formazan product formed by the reaction was measured at a measurement wavelength of 655 nm by using a microplate reader (Labsystems, Finland) to colorimetrically determine the growth of the protozoa. The 50% growth inhibitory concentration for the protozoa of the compound (IC50 value) was determined based on the concentration-response curve of the compound.

[2] = test system: FCR3 strain, a drug sensitive strain of Plasmodium falciparum; assay: In vitro antimalarial assay (p-LDH, Malstat), FCR3 strain; type: cell-based; conditions: P. falciparum FCR3 (drug sensitive), 72 h culture, p-LDH readout, read-out: Antimalarial activity (IC50 value), Strain FCR3
From the text: as §1, §2, §3, §4, §5, §6

| SMILES | IC50 [1] | IC50 [2] |
| --- | --- | --- |
| Cc1ccnc(Nc2nc(Nc3ccn4ccnc4c3)cc(N3CCN(C)CC3)n2)c1 [Example 25, N4-(imidazo[1,2-a]pyridin-7-yl)-6-(4-methylpiperazin-l-yl)-N 2-(4-methylpyridin-2-yl)pyrimidine-2,4-diamine] | 1000 to 10000 nM | 1000 to 10000 nM |
| Cc1cc(C)nc(Nc2nc(Nc3ccn4ccnc4c3)cc(N3CCC(N4CCCCC4)CC3)n2)c1 [Example 133, 6-([1,4′-bipiperidin]-1′-yl)-N2-(4,6-dimethylpyridin-2-yl)-N4-(imidazo[1,2-a]pyridin-7-yl)pyrimidine-2,4-diamine] | < 100 nM | < 100 nM |
| CCc1ccnc(Nc2nc(Nc3ccn4ccnc4c3)cc(N3CC[C@@H](N(C)C)C3)n2)c1 [Example 125, (R)-6-(3-(dimethylamino)pyrrolidin-1-yl)-N2-(4-ethylpyridin-2-yl)-N4-(imidazo[1,2-a]pyridin-7-yl)pyrimidine-2,4-diamine] | < 100 nM | < 100 nM |
| OCc1cccc(Nc2nc(Nc3ccn4ccnc4c3)cc(N3CCCCC3)n2)n1 [Example 192, (6-{[4-(imidazo[1,2-a]pyridin-7-ylamino)-6-(piperidin-1-yl)pyrimidin-2-yl]amino}pyridin-2-yl)methanol] | 1000 to 10000 nM | 100 to 1000 nM |
| Cc1cccnc1Nc1nc(Nc2ccn3ccnc3c2)cc(N2CCOCC2)n1 [Example 9, N4-(Imidazo[1,2-a]pyridin-7-yl)-N2-(3-methylpyridin-2-yl)-6-morpholinopyrimidine-2,4-diamine] | 100 to 1000 nM | < 100 nM |
| Cc1cc(C)nc(Nc2nc(Nc3ccn4ccnc4c3)cc(N3CCC4(CCOCC4)C3)n2)c1 [Example 175, N2-(4,6-dimethylpyridin-2-yl)-N4-(imidazo[1,2-a]pyridin-7-yl)-6-(8-oxa-2-azaspiro[4.5]decan-2-yl)pyrimidine-2,4-diamine] | < 100 nM | < 100 nM |
| CCc1ccnc(Nc2nc(Nc3ccn4ccnc4c3)cc(N3CC[C@@H](O)C3)n2)c1 [Example 116, (R)-1-(2-((4-ethylpyridin-2-yl)amino)-6-(imidazo[1,2-a]pyridin-7-ylamino)pyrimidin-4-yl)pyrrolidin-3-ol] | < 100 nM | < 100 nM |
| CCCc1ccnc(Nc2nc(Nc3ccn4ccnc4c3)cc(N3CCOCC3)n2)c1 [Example 74, N4-(imidazo[1,2-a]pyridin-7-yl)-6-morpholino-N2-(4-propylpyridin-2-yl)pyrimidine-2,4-diamine] | 100 to 1000 nM | < 100 nM |
| CCc1ccnc(Nc2nc(Nc3ccn4ccnc4c3)cc(N3CCC(C)CC3)n2)c1 [Example 98, N2-(4-ethylpyridin-2-yl)-N4-(imidazo[1,2-a]pyridin-7-yl)-6-(4-methylpiperidin-1-yl)pyrimidine-2,4-diamine] | 100 to 1000 nM | 100 to 1000 nM |
| CC(C)c1cccc(Nc2nc(Nc3ccn4ccnc4c3)cc(N3CCCCC3)n2)n1 [Example 121, N4-(imidazo[1,2-a]pyridin-7-yl)-N2-(6-isopropylpyridin-2-yl)-6-(piperidin-1-yl)pyrimidine-2,4-diamine] | 100 to 1000 nM | < 100 nM |
| Cc1cc(C)nc(Nc2nc(Nc3ccn4ccnc4c3)cc(N3C[C@@H](C)[C@H](C)C3)n2)c1 (relative stereo) [Example 193, N2-(4,6-dimethylpyridin-2-yl)-6-[trans-3,4-dimethylpyrrolidin-1-yl]-N4-(imidazo[1,2-a]pyridin-7-yl)pyrimidine-2,4-diamine] | < 100 nM | < 100 nM |
| CCCCc1cccc(Nc2nc(Nc3ccn4ccnc4c3)cc(N3CCC3)n2)n1 [Example 167, 6-(azetidin-1-yl)-N2-(6-butylpyridin-2-yl)-N4-(imidazo[1,2-a]pyridin-7-yl)pyrimidine-2,4-diamine] | 100 to 1000 nM | < 100 nM |
| c1cn2ccc(Nc3cc(N4CCOCC4)nc(Nc4ccc(OC5CCC5)nc4)n3)cc2n1 [Example 80, N2-(6-cyclobutoxypyridin-3-yl)-N4-(imidazo[1,2-a]pyridin-7-yl)-6-morpholinopyrimidine-2,4-diamine] | 100 to 1000 nM | 100 to 1000 nM |
